# Assay results published in patent US10508107B2, “Morpholine derivative” (Hoffmann-La Roche Inc., priority 2016, dated 2019).
# Read-outs that look alike come from different tables or passages of the source.
# Columns and labels:
# human TAAR1 = human TAAR1 (Homo sapiens (Human), UniProt Q96RJ0); experiment: cAMP functional assay in HEK293 cells expressing human TAAR1; assay type: cell-based; details: for hTAAR1 efficacy*: % agonist activity, β-phenylethylamine = 100% agonism; for EC50: cAMP, HEK293 cells expressing human TAAR1, read-out: hTAAR1 EC50
# Chain of human TAAR1 (Q96RJ0 whole entry): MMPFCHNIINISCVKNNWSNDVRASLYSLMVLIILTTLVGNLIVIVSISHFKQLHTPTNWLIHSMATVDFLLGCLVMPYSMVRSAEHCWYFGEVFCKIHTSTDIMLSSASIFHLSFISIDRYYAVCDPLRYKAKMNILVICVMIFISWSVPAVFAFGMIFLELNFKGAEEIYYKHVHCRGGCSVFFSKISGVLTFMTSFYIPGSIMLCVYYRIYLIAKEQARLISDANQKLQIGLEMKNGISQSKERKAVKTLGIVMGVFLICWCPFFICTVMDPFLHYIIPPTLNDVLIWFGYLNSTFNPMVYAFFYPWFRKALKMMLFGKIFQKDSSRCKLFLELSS
# Method: For the construction of expression plasmids the coding sequences of human TAAR 1 were amplified from genomic DNA essentially as described by Lindemann et al.[14]. The Expand High Fidelity PCR System (Roche Diagnostics) was used with 1.5 mM Mg^2+ and purified PCR products were cloned into pCR2.1-TOPO cloning vector (Invitrogen) following the instructions of the manufacturer. PCR products were subcloned into the pIRESneo2 vector (BD Clontech, Palo Alto, Calif.), and expression vectors were sequence verified before introduction in cell lines.
# HEK293 cells (ATCC # CRL-1573) were cultured essentially as described by Lindemann et al. (2005). For the generation of stably transfected cell lines HEK293 cells were transfected with the pIRESneo2 expression plasmids containing the TAAR coding sequences (described above) with Lipofectamine 2000 (Invitrogen) according to the instructions of the manufacturer, and 24 hrs post transfection the culture medium was supplemented with 1 mg/ml G418 (Sigma, Buchs, Switzerland). After a culture period of about 10 d clones were isolated, expanded and tested for responsiveness to trace amines (all compounds purchased from Sigma) with the cAMP Biotrak Enzyme immunoassay (EIA) System (Amersham) following the non-acetylation EIA procedure provided by the manufacturer.
# cAMP measurements were performed as described previously (Revel et al., Proc. Natl. Acad. Sci. USA 2011, 108, 8485-8490). In brief, cells that expressed human TAAR1 were plated on 96-well plates (BIOCOAT 6640; Becton Dickinson, Allschwil, Switzerland) and incubated for 20 h at 37° C. Prior to stimulation of the cells with a broad concentration range of agonists for 30 min at 37° C., the cells were washed with PBS and preincubated with PBS that contained 1 mM 3-isobutyl-1-methylxanthine for 10 min at 37° C. and 5% CO2. Stimulation with 0.2% DMSO was set as the basal level, and the effect of 30 μM β-PEA was set as the maximal response. Subsequently, the cells were lysed, and cAMP assays were performed according to the manufacturer's instructions (cAMP kit; Upstate/Millipore, Schaffhausen, Switzerland). Finally, the plates were read with a luminometer (1420 Multilabel counter; PerkinElmer, Schwerzenbach, Switzerland), and the amount of cAMP was calculated. The results were obtained from at least three independent experiments. Experiments were run in duplicate or triplicate. EC50 values are presented as mean ±standard deviation (in μM).
# human DAT = human DAT (Homo sapiens (Human), UniProt Q01959); experiment: Binding to dopamine transporter (DAT) in vitro, [3H]-WIN35,428 SPA; details: for Ki: [3H]-WIN35,428 radioligand; for DAT selectivity ratio versus hTAAR1 EC50: DAT Ki / hTAAR1 EC50
# Chain of human DAT (Q01959 whole entry): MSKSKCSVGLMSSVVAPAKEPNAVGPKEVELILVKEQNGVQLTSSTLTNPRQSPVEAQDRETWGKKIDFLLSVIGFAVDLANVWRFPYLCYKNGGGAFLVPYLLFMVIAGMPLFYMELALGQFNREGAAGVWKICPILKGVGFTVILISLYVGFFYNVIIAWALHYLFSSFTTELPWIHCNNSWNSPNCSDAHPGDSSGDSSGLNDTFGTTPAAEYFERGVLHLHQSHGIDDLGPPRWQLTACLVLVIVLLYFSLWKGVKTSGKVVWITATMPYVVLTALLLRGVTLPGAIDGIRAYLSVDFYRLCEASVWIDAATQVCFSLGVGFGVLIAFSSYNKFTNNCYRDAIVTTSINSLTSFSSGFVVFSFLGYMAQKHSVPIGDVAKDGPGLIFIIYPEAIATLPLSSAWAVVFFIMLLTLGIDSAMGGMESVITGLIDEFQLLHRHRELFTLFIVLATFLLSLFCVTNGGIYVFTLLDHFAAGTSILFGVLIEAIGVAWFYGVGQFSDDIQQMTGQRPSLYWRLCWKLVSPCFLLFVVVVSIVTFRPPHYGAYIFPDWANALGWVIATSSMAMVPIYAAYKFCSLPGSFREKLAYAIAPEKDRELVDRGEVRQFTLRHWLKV
# Method: Binding to dopamine transporter (DAT) in vitro. Human embryonic kidney (HEK) 293 cells (Invitrogen, Zug, Switzerland) stably transfected with human DAT were cultured. The cells were collected and washed three times with phosphate-buffered saline (PBS). The pellets were frozen at −80° C. The pellets were then resuspended in 400 ml of 20 mM HEPES-NaOH, pH 7.4, that contained 10 mM EDTA at 4° C. After homogenization with a Polytron (Kinematica, Lucerne,
# Switzerland) at 10000 rotations per minute (rpm) for 15 s, the homogenates were centrifuged at 48000×g for 30 min at 4° C. Aliquots of the membrane stocks were frozen at −80° C. All assays were performed at least three times. The test compounds were diluted in […] of binding buffer (252 mM NaCl, 5.4 mM KCl, 20 mM Na2HPO4, 3.52 mM KH2PO4, pH 7.4) and 10 point dilution curves were made and transferred to 96-well white polystyrene assay plates (Sigma-Aldrich, Buchs, Switzerland). […] Twenty microliters of binding buffer alone in the assay plate defined the total binding, whereas binding in the presence of 10 μM indatraline defined nonspecific binding. Frozen DAT membrane stocks were thawed and resuspended to a concentration of approximately 0.04 mg protein/ml binding buffer (1:1 diluted in H2O) using a polytron tissue homogenizer. The membrane homogenates (40 μg/ml) were then lightly mixed for 5-30 min with polyvinyl toluene […] wheat germ agglutinin-coated scintillation proximity assay (WGASPA; Amersham Biosciences) beads at 7.7 mg beads/ml homogenate. One hundred thirty microliters of the membrane/bead mixture were added to each well of the assay plate that contained radioligand and test compounds (final volume in each well, 200 μl) to start the assay, which was incubated for approximately 2 h at room temperature with agitation. The assay plates were then counted in the PVT SPA counting mode of a Packard Topcount. […] Non-linear regression was used to fit the data to sigmoid curves and determine IC50 values for binding and uptake. Ki values for binding and uptake were calculated using the following Cheng-Prusoff equation: Ki=IC50/(1+[S]/Km).
# hERG potassium channel = hERG potassium channel (Homo sapiens (Human), UniProt Q12809); experiment: hERG whole-cell patch-clamp in stably transfected CHO cells; assay type: cell-based; details: for selectivity ratio: pH 7.4, hERG IC20 / hTAAR1 EC50, read-out: hERG selectivity ratio versus hTAAR1 EC50; for IC50: patch-clamp, CHO cells, 36±1° C.
# Chain of hERG potassium channel (Q12809 whole entry): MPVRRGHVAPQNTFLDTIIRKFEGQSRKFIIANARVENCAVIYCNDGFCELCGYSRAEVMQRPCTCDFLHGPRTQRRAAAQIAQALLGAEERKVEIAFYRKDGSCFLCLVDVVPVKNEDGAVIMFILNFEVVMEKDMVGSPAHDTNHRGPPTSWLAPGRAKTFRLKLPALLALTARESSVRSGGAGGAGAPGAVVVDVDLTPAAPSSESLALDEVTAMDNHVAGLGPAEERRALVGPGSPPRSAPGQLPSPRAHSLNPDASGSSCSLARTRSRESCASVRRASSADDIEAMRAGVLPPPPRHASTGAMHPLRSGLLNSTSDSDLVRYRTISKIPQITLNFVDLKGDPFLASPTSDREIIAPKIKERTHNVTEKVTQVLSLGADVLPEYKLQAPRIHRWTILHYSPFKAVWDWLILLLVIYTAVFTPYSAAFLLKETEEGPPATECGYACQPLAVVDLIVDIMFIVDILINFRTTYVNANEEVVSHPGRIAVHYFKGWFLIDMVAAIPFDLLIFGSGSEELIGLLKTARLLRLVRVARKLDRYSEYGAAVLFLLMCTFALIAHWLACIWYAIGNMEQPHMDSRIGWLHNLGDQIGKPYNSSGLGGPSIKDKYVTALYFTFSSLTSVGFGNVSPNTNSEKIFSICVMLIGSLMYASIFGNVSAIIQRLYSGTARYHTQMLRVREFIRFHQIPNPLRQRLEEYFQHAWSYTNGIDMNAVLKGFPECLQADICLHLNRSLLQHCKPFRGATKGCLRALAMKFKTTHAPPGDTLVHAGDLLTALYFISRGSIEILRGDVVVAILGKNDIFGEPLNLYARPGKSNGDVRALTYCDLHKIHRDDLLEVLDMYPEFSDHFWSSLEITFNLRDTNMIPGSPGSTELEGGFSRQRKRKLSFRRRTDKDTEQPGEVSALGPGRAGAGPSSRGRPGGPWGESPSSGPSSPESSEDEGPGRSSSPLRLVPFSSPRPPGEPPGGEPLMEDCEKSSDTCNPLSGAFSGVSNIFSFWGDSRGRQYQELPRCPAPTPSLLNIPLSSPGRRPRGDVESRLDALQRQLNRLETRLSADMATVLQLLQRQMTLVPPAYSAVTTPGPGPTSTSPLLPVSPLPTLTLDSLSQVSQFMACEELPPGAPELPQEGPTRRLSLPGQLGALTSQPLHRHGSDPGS
# Method: The whole-cell patch-clamp technique was used to investigate the effects of the test items on hERG (human-ether-a-go-go related gene) potassium channels in stably transfected CHO cells near physiological temperature (36±1° C.). The effects of compounds on hERG K^+-current parameters were evaluated at 4 concentrations (0.3-3-30-300 μM) in at least 3 CHO cells stably expressing the hERG channel. For electrophysiological measurements cells were seeded onto 35 mm sterile culture dishes containing 2 ml culture medium without Hygromycin B. Cells were cultivated at a density that enabled single cells (without visible connections to neighbouring cells) to be measured. Cells were incubated at 37° C. in a humidified atmosphere with 5% CO2 (rel. humidity about 95%). The cells were continuously maintained in and passaged in sterile culture flasks containing nutrient mixture F-12 (DMEM/F-12 with L-Glutamine) supplemented with 10% foetal bovine serum and 10% penicillin/streptomycin solution. […] The 35 mm culture dishes upon which cells were seeded at a density allowing single cells to be recorded were placed on the dish holder of the microscope and continuously perfused (at approximately 1 ml/min) with the bath solution (sodium chloride 150 mM, potassium chloride 4 mM, calcium chloride 1.2 mM, magnesium chloride 1 mM, HEPES 10 mM, pH (NaOH) 7.4) at near physiological temperature (36±1° C.). After formation of a Gigaohm seal between the patch electrodes and individual hERG stably transfected CHO cells (pipette resistance range: 2.0 MΩ-7.0 Mω; seal resistance range: >1 Gω) the cell membrane across the pipette tip was ruptured to assure electrical access to the cell interior (whole-cell patch-configuration). In case the quality of the seal was poor, the process of seal formation was repeated with a different cell and a new pipette. […] This voltage protocol was run at least 10 times at intervals of 10 s. If current density was judged to be too low for measurement, another cell was recorded. […] During wash-in of the test item the voltage protocol indicated above was run continuously again at 10 s intervals until the steady-state level of block was reached. The four test item concentrations of the compound were applied sequentially to 3 cells in a cumulative manner. […] Based on the IC50 value the IC20 was estimated. Each concentration of the test item was analyzed in three experiments (n=3).
# [1] = estimated based on the IC50 value
# [2] = human, CHO cells stably expressing hERG
# [3] = human, CHO cells stably expressing hERG, pH 7.4, estimated based on the IC50 value
SMILES,hTAAR1 efficacy* (human TAAR1) [%],EC50 (human TAAR1; listed as example 15) [µM],EC50 (human TAAR1) [µM],Ratio DAT Ki/hTAAR1 EC50 (human DAT),Ki (human DAT) [µM],Ratio hERG IC20/hTAAR1 EC50 (hERG potassium channel),IC20 (hERG potassium channel; [1]) [µM],selectivity ratio (hERG potassium channel; [2]),IC50 (hERG potassium channel) [µM],DAT selectivity ratio versus hTAAR1 EC50 (human DAT) [fold],IC20 (hERG potassium channel; [3]) [µM],Ki (human DAT; listed as example 5) [µM],functional activity at hTAAR1 (human TAAR1; in vitro),Ki (human DAT; listed as example 1) [µM],EC50 (human TAAR1; listed as example 14) [µM]
"O=C(Nc1ccc([C@H]2CNCCO2)cc1)c1coc(-c2ccccc2)n1 [Example 15, N-[4-[(2S)-Morpholin-2-yl]phenyl]-2-phenyl-1,3-oxazole-4-carboxamide]",35,0.663,0.663,>39,> 26.1,4,2.4,4,9.65,,,,,,
"O=C(Nc1ccc([C@H]2CNCCO2)cc1)c1cc(Cl)nc(Cl)c1 [Example 7, 2,6-Dichloro-N-[4-[(2S)-morpholin-2-yl]phenyl]pyridine-4-carboxamide]",57,,0.0849,9,0.79,43,3.67,43,11.4,9,3.57,,,,
"Cc1c(C(=O)Nc2ccc([C@H]3CNCCO3)cc2)n[nH]c1-c1ccccc1 [Example 8, 4-Methyl-N-[4-[(2S)-morpholin-2-yl]phenyl]-5-phenyl-1H-pyrazole-3-carboxamide]",33,,0.109,90,9.77,28,3.01,28,10.8,,,,,,
"O=C(Nc1ccc([C@H]2CNCCO2)cc1)c1ccnc(Cl)c1 [Example 5, 2-Chloro-N-[4-[(2S)-morpholin-2-yl]phenyl]pyridine-4-carboxamide]",40,,0.0656,23,1.52,338,,,81.7,23,22.2,1.5,,,
"CCc1[nH]nc(C(=O)Nc2ccc([C@H]3CNCCO3)cc2)c1C [Example 1, 5-Ethyl-4-methyl-N-[4-[(2S)-morpholin-2-yl]phenyl]-1H-pyrazole-3-carboxamide]",42,,,,27.5,,36.2,,217,,,,partial agonist,27.5,
"Cc1nc(C(=O)Nc2ccc([C@H]3CNCCO3)cc2)cs1 [Example 19, N-[4-[(2S)-Morpholin-2-yl]phenyl]2-methyl-1,3-thiazole-4-carboxamide]",32,,1.02,21,21.9,8,8.32,8,60.5,,,,,,
"Cc1cc(C(=O)Nc2ccc([C@H]3CNCCO3)cc2)cc(Cl)n1 [Example 14, 2-Chloro-6-methyl-N-[4-[(2S)-morpholin-2-yl]phenyl]pyridine-4-carboxamide]",53,,0.447,16,7.32,48,,,73.2,16,21.6,,,,0.447
"O=C(Nc1ccc([C@H]2CNCCO2)cc1)c1csc(-c2ccccc2)n1 [Example 16, N-[4-[(2S)-Morpholin-2-yl]phenyl]-2-phenyl-1,3-thiazole-4-carboxamide]",35,,0.666,24,16.2,5,3.35,5,8.98,,,,,,
